For nine cell lines, relative viability results are on record in the supplement of paper PMC10307832.

Test in all cases: relative viability (nuclei count vs DMSO), 5 days (fraction); higher = more cells survive
Compound in the assay “Cediranib + Luminespib”: COc1cc2c(Oc3ccc4[nH]c(C)cc4c3F)ncnc2cc1OCCCN1CCCC1 [Cediranib] + CCNC(=O)c1noc(-c2cc(C(C)C)c(O)cc2O)c1-c1ccc(CN2CCOCC2)cc1 [Luminespib] (partner 0.01 µM)
The procedure, abridged:
(§1)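 Relative viability is defined as nuclei in treated wells over nuclei in vehicle wells. Duplicate plates were run and medians reported. Lung cancer cell lines in 1536-well plates were dosed by pin tool one day after seeding, with one drug or with a fixed anchor-drug dose plus five library-drug doses (not always all listed) in √10 steps, and nuclei were counted after 5 days.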

Compound in the assay “Decitabine + Foretinib”: Nc1ncn([C@H]2C[C@H](O)[C@@H](CO)O2)c(=O)n1 [Decitabine] + COc1cc2c(Oc3ccc(NC(=O)C4(C(=O)Nc5ccc(F)cc5)CC4)cc3F)ccnc2cc1OCCCN1CCOCC1 [Foretinib] (partner 0.25 µM)
The procedure, abridged: as §1

Compound in the assay “Decitabine + Crizotinib”: Nc1ncn([C@H]2C[C@H](O)[C@@H](CO)O2)c(=O)n1 [Decitabine] + C[C@@H](Oc1cc(-c2cnn(C3CCNCC3)c2)cnc1N)c1c(Cl)ccc(F)c1Cl [Crizotinib] (partner 1 µM)
In short, it runs like this: as §1

For NCI-H2347, the relative viability with Cediranib + Luminespib (first compound 0.04 µM) came to 0.321; in the assay with Cediranib + Luminespib (first compound 0.1265 µM) it was 0.404; with Cediranib + Luminespib (first compound 0.4 µM) it was 0.637; in the assay with Cediranib + Luminespib (first compound 1.265 µM) it was 0.506; in the assay with Cediranib + Luminespib (first compound 4 µM), 0.747; with Decitabine + Foretinib (first compound 0.1265 µM), 0.857. For the same cell line, the relative viability in the assay with Decitabine + Foretinib (first compound 0.4 µM) came to 0.454; with Decitabine + Foretinib (first compound 1.265 µM), 0.683; with Decitabine + Foretinib (first compound 4 µM) it was 0.819; with Decitabine + Crizotinib (first compound 0.04 µM), 0.691; with Decitabine + Crizotinib (first compound 0.1265 µM) it was 0.511; in the assay with Decitabine + Crizotinib (first compound 0.4 µM), 0.549. Also, the relative viability in the assay with Decitabine + Crizotinib (first compound 1.265 µM) is 0.474; in the assay with Decitabine + Crizotinib (first compound 4 µM) it was 0.469.
For NCI-H2405, the relative viability with Cediranib + Luminespib (first compound 0.04 µM) amounted to 0.897; in the assay with Cediranib + Luminespib (first compound 0.1265 µM) it was 0.712; with Cediranib + Luminespib (first compound 0.4 µM), 0.649; with Cediranib + Luminespib (first compound 1.265 µM), 0.657; with Cediranib + Luminespib (first compound 4 µM), 0.532; with Decitabine + Foretinib (first compound 0.04 µM), 0.957. The relative viability with Decitabine + Foretinib (first compound 0.1265 µM) is 0.918; with Decitabine + Foretinib (first compound 0.4 µM) it was 0.863; in the assay with Decitabine + Foretinib (first compound 1.265 µM) it was 0.628; in the assay with Decitabine + Foretinib (first compound 4 µM), 0.462; in the assay with Decitabine + Crizotinib (first compound 0.04 µM), 0.807; with Decitabine + Crizotinib (first compound 0.1265 µM), 0.759. The relative viability in the assay with Decitabine + Crizotinib (first compound 0.4 µM) turned out to be 0.671; with Decitabine + Crizotinib (first compound 1.265 µM) it was 0.562; with Decitabine + Crizotinib (first compound 4 µM), 0.41.
NCI-H3122: the relative viability with Cediranib + Luminespib (first compound 0.04 µM) turned out to be 0.0861; in the assay with Cediranib + Luminespib (first compound 0.1265 µM) it was 0.09; with Cediranib + Luminespib (first compound 0.4 µM), 0.0816; with Cediranib + Luminespib (first compound 1.265 µM), 0.0839; with Cediranib + Luminespib (first compound 4 µM), 0.12; with Decitabine + Foretinib (first compound 0.04 µM), 0.898. The relative viability with Decitabine + Foretinib (first compound 0.1265 µM) turned out to be 0.775; in the assay with Decitabine + Foretinib (first compound 0.4 µM), 0.715; with Decitabine + Foretinib (first compound 1.265 µM), 0.539; in the assay with Decitabine + Foretinib (first compound 4 µM) it was 0.575; with Decitabine + Crizotinib (first compound 0.04 µM), 0.258; in the assay with Decitabine + Crizotinib (first compound 0.1265 µM) it was 0.251. The relative viability with Decitabine + Crizotinib (first compound 0.4 µM) amounted to 0.277; with Decitabine + Crizotinib (first compound 1.265 µM), 0.346; with Decitabine + Crizotinib (first compound 4 µM), 0.28.
With PC-3 [JPC-3], the relative viability with Cediranib + Luminespib (first compound 0.04 µM) turned out to be 0.649; in the assay with Cediranib + Luminespib (first compound 0.1265 µM) it was 0.654; with Cediranib + Luminespib (first compound 0.4 µM) it was 0.665; with Cediranib + Luminespib (first compound 1.265 µM) it was 0.735; in the assay with Cediranib + Luminespib (first compound 4 µM), 0.449; with Decitabine + Foretinib (first compound 0.04 µM) it was 0.833. In addition, the relative viability with Decitabine + Foretinib (first compound 0.1265 µM) was determined as 0.71; with Decitabine + Foretinib (first compound 0.4 µM), 0.588; with Decitabine + Foretinib (first compound 1.265 µM), 0.54; in the assay with Decitabine + Foretinib (first compound 4 µM) it was 0.472; with Decitabine + Crizotinib (first compound 0.1265 µM), 0.728; in the assay with Decitabine + Crizotinib (first compound 0.4 µM), 0.388. The relative viability with Decitabine + Crizotinib (first compound 1.265 µM) was found to be 0.536; with Decitabine + Crizotinib (first compound 4 µM), 0.516.
With PC-14, the relative viability in the assay with Cediranib + Luminespib (first compound 0.04 µM) worked out at 0.137; in the assay with Cediranib + Luminespib (first compound 0.1265 µM), 0.16; in the assay with Cediranib + Luminespib (first compound 0.4 µM), 0.154; in the assay with Cediranib + Luminespib (first compound 1.265 µM), 0.108; in the assay with Cediranib + Luminespib (first compound 4 µM), 0.119; with Decitabine + Foretinib (first compound 0.1265 µM) it was 0.744. In addition, the relative viability with Decitabine + Foretinib (first compound 0.4 µM) is 0.411; with Decitabine + Foretinib (first compound 1.265 µM) it was 0.313; in the assay with Decitabine + Foretinib (first compound 4 µM) it was 0.282; with Decitabine + Crizotinib (first compound 0.1265 µM), 0.57; with Decitabine + Crizotinib (first compound 0.4 µM) it was 0.258; in the assay with Decitabine + Crizotinib (first compound 1.265 µM), 0.27. Besides, the relative viability in the assay with Decitabine + Crizotinib (first compound 4 µM) was found to be 0.225.
As to RERF-LC-KJ, the relative viability is 1.39 in the assay with Cediranib + Luminespib (first compound 0.04 µM); 1.15 in the assay with Cediranib + Luminespib (first compound 0.1265 µM); 1.27 in the assay with Cediranib + Luminespib (first compound 0.4 µM); 1.25 with Cediranib + Luminespib (first compound 1.265 µM); 1.25 with Cediranib + Luminespib (first compound 4 µM); 0.877 with Decitabine + Foretinib (first compound 0.04 µM). The relative viability with Decitabine + Foretinib (first compound 0.1265 µM) was determined as 0.84; with Decitabine + Foretinib (first compound 0.4 µM), 0.741; with Decitabine + Foretinib (first compound 1.265 µM), 0.689; with Decitabine + Foretinib (first compound 4 µM), 0.635; with Decitabine + Crizotinib (first compound 0.04 µM), 0.812; with Decitabine + Crizotinib (first compound 0.1265 µM), 0.77. Moreover, the relative viability in the assay with Decitabine + Crizotinib (first compound 0.4 µM) is 0.245; with Decitabine + Crizotinib (first compound 1.265 µM) it was 0.551; in the assay with Decitabine + Crizotinib (first compound 4 µM), 0.561.
Take SK-LU-1: the relative viability with Cediranib + Luminespib (first compound 0.04 µM) worked out at 0.203; with Cediranib + Luminespib (first compound 0.1265 µM), 0.195; with Cediranib + Luminespib (first compound 0.4 µM), 0.183; with Cediranib + Luminespib (first compound 1.265 µM), 0.203; in the assay with Cediranib + Luminespib (first compound 4 µM), 0.194; with Decitabine + Foretinib (first compound 0.04 µM), 0.686. Also, the relative viability in the assay with Decitabine + Foretinib (first compound 0.1265 µM) turned out to be 0.674; with Decitabine + Foretinib (first compound 0.4 µM) it was 0.376; with Decitabine + Foretinib (first compound 1.265 µM), 0.356; with Decitabine + Foretinib (first compound 4 µM), 0.356; with Decitabine + Crizotinib (first compound 0.04 µM), 0.668; with Decitabine + Crizotinib (first compound 0.1265 µM), 0.614. Also, the relative viability in the assay with Decitabine + Crizotinib (first compound 0.4 µM) is 0.352; with Decitabine + Crizotinib (first compound 1.265 µM), 0.484; with Decitabine + Crizotinib (first compound 4 µM) it was 0.453.
For SK-MES-1, the relative viability amounted to 0.797 with Cediranib + Luminespib (first compound 0.04 µM); 0.869 with Cediranib + Luminespib (first compound 0.1265 µM); 0.9 in the assay with Cediranib + Luminespib (first compound 0.4 µM); 0.833 with Cediranib + Luminespib (first compound 1.265 µM); 0.86 in the assay with Cediranib + Luminespib (first compound 4 µM); 0.688 with Decitabine + Foretinib (first compound 0.04 µM). Also, the relative viability with Decitabine + Foretinib (first compound 0.1265 µM) is 0.758; with Decitabine + Foretinib (first compound 0.4 µM), 0.697; with Decitabine + Foretinib (first compound 1.265 µM) it was 0.407; with Decitabine + Foretinib (first compound 4 µM), 0.309; in the assay with Decitabine + Crizotinib (first compound 0.04 µM), 0.866; with Decitabine + Crizotinib (first compound 0.1265 µM) it was 0.703. Further, the relative viability in the assay with Decitabine + Crizotinib (first compound 0.4 µM) was determined as 0.329; with Decitabine + Crizotinib (first compound 1.265 µM), 0.333; with Decitabine + Crizotinib (first compound 4 µM) it was 0.289.
Consider SW 1573, for which the relative viability with Cediranib + Luminespib (first compound 0.04 µM) amounted to 0.347; with Cediranib + Luminespib (first compound 0.1265 µM), 0.324; with Cediranib + Luminespib (first compound 0.4 µM), 0.256; with Cediranib + Luminespib (first compound 1.265 µM), 0.21; in the assay with Cediranib + Luminespib (first compound 4 µM), 0.24; in the assay with Decitabine + Foretinib (first compound 0.04 µM), 0.769. In addition, the relative viability with Decitabine + Foretinib (first compound 0.1265 µM) was determined as 0.891; with Decitabine + Foretinib (first compound 0.4 µM) it was 0.793; with Decitabine + Foretinib (first compound 1.265 µM) it was 0.591; with Decitabine + Foretinib (first compound 4 µM), 0.49; with Decitabine + Crizotinib (first compound 0.04 µM), 0.627; in the assay with Decitabine + Crizotinib (first compound 0.1265 µM) it was 0.961. In addition, the relative viability in the assay with Decitabine + Crizotinib (first compound 0.4 µM) came out at 0.724; with Decitabine + Crizotinib (first compound 1.265 µM) it was 0.507; with Decitabine + Crizotinib (first compound 4 µM) it was 0.358.
